# Several values for one entry are separate records, joined by “and”; a condition that tells them apart may be missing. Equal entries are not always repeated.
# Experiments:
# 3T3 cells = assay: Cryopreservation, post-thaw recovery rate, Example 3; format: cell-based; conditions: incubated with medium only; frozen −80° C. in medium with 5% DMSO
# Experimental: Cryopreservation: The cryopreservation effects of EGL-3Pro and EGL-3Phe were tested on 3T3 cells. The cells were incubated with 5 mM or 10 mM EGL-3Pro or 0.5 mM EGL-3Phe or medium only (two control groups) for 72 hours. After incubation, the cells were detached by treating […] pelleted by centrifuging (200×g). The cells were then resuspended in medium with 400 mM trehalose or 5% DMSO (for control 2 group) in cryovials and a small portion of cell suspension were used for counting pre-freeze cell number. The vials were directly put in −80° C. freezer and stored for at least 3 days. The cells were thawed in 37° C. water bath until ice melt, and resuspended in 10 mL fresh medium and pelleted by centrifuging (200×g). The cells were then resuspended in 1 mL fresh medium and counted by cell counter. The recovery rate was obtained by dividing post-thaw lived cell number by pre-freeze lived cell number.
# NIH-3T3 cells [1] = assay: Post-thaw total cell recovery of cryopreserved cells (trypan blue exclusion); format: cell-based; conditions: ±SEM
# Experimental: The delivery of sugar alcohols into cells makes it possible to turn these molecules into intracellular CPAs. […] Total post-thaw cell recovery, defined as the ratio (%) of post-thaw live cells to the number of initially frozen live cells, which provides a more accurate measure of cryoprotective outcome than cell viability, was used to assess the cryoprotective effects of the diesters.
# Systematic studies were then performed by incubating the cells (1) with each of diesters 1-4 (10 mM), (2) with unmodified sorbitol, mannitol, xylitol, or erythritol (10 mM), and (3) in medium without any of the diesters or sugar alcohols, at 37° C. for 48 h. The cells treated with diesters 1-4 and the four sugar alcohols were then transferred to freezing media consisting of DMEM, 10% FBS and 400 mM trehalose. The cells incubated with only the medium were divided into two portions, one being directly transferred to the freezing medium containing 400 mM trehalose (control 1) and the other being placed in a different freezing medium consisting of DMEM, 10% FBS and 5% DMSO but without trehalose (control 2). After being frozen at −80° C. for 72 h, the cells were thawed in a warm water bath at 37° C. until ice melted. The post-thaw cells were either immediately analyzed for their survival or were cultured in growth media (DMEM with 10% FBS) for 24 h and 48 h before being analyzed.
# Incubation (for cryopreservation). NIH/3T3 cells were seeded into cell culture treated plates (100 mm) at a density of 2×10^4 cells/mL (10 mL/plate), allowed to adhere overnight and then incubated with different sample solutions (10 mL) for 48 hours at 37° C. under 5% CO2. Control cells were incubated with growth medium.
# Cryopreservation. At the end of the incubation, the cells were rinsed with PBS (2 mL) and detached using 0.25% trypsin-EDTA (3 mL). The cells were pelleted (200×g, 5 min) and resuspended in growth medium with 400 mM trehalose except for the control-2 group. For control-2 group, cells were resuspended in growth medium with 5% DMSO (v/v). An aliquot of cells of each group was then removed for counting by a DeNovix Celldrop cell counter to obtain prefreeze number of viable cells. The remaining cell suspension was transferred into a 2 mL cryogenic vial. The vials were directly transferred to −80° C. freezer without controlling cooling rate and stored at −80° C. freezer for 3 days. To thaw, cryogenic vials were removed from −80° C. freezer and suspended in a 37° C. water bath until ice melt. To the contents of each vial 1 mL growth medium was added and centrifuged (200×g , 5 min). The supernatant was discarded and cell pellet was resuspended in 1 mL growth cell medium. An aliquot of cell suspension of each group was then removed for counting with a DeNovix Celldrop cell counter to obtain the number of viable cells at 0-hr post-thaw. The remaining cell suspension was split equally and resuspended into two cell culture treated plates (100 mm) with 10 mL growth medium in each plate. The plates were then maintained for either 24 hours or 48 hours at 37° C. under 5% CO2. After being cultured for either 24 hours or 48 hours, the cells were rinsed with PBS (2 mL) and detached using 0.25% trypsin-EDTA (3 mL). The cells were pelleted (200×g, 5 min) and resuspended in growth medium. The cell suspension was then analyzed by DeNovix Celldrop cell counter to obtain number of viable cells at either 24-hr or 48-hr post-thaw.
# Trypan Blue Exclusion Assay. For all time points, a sample of cells was mixed 1:1 in 0.4% trypan blue and counted using a DeNovix Celldrop. Cell recovery was calculated as the ratio of viable cells to the number of cells initially frozen.
# NIH-3T3 cells [2] = assay: Post-thaw viability of cryopreserved NIH-3T3 cells (CCK-8), Example 1; format: cell-based; conditions: for Post-thaw viability, 24 hours post thaw / Post-thaw viability, 48 hours post-thaw: Table 1
# Experimental: Cryopreservation protocol. […] Discarded 95% of the old media and added 0.5 mL new DMEM (pH=7.4) with 10% FBS and 400 mM trehalose (filtered with 0.22 μm filter) and re-suspended the cells. • Transferred the cell culture to cryo-tube and stored the tubes at −80° C. for 3 days. • Thawed the cells at 37° C. in a water bath until ice melted. • Counted the cell density in each cryo-tube with cell counter. • Re-cultured the cells in 96-well plate with fresh DMEM (PH=7.4) with 10% FBS. (while keeping cell density the approximately the same for each well). • Used CCK-8 kit to test the post-thaw viability after certain time.
# NIH-3T3 cells [3] = assay: Live/dead fluorescence microscopy of post-thaw cells (calcein-AM / ethidium homodimer-1); format: cell-based; conditions: 24 h post-thaw; incubated with 10 mM for 48 h, frozen in media with 400 mM trehalose (FIG. 14)
# Experimental: DIC and Fluorescence images capturing. NIH/3T3 cells were treated as the same as for cryopreservation experiment and were thawed in a 37° C. water bath until ice melt. Cells in each vial were then pelleted (200×g, 5 min), re-suspended in 1 mL fresh growth medium and plated into 96 well plate and grown for 24 hours. Each well was washed with sterile PBS (100 μL). Sterile PBS (200 μL) containing 2 μM calcein-AM and 4 μM ethidium homodimer-1 (EthD-1) was then added to each well. The 96-well plate was then incubated in a CO2 incubator at 37° C. for 30 min. Fresh cells without freezing were plated at similar density in 96-well plate as comparison. DIC and fluorescence microscopy images were captured at 509 and 580 nm on Axioplan 2 fluorescent microscope (Zeiss [Carl Zeiss], Thornwood, NY) with an Axiocam MRm camera (Zeiss). Axiovision 4 software (Zeiss) was used for image acquisition. Digital images were processed with ImageJ (imagej.nih.gov/ij/).
# NIH-3T3 cells [4] = assay: Cytotoxicity, CCK-8 cell viability after 48 h incubation
# Experimental: Cytotoxicity assays were performed by exposing NIH-3T3 cells to the diesters. Cell viability was determined by using Cell Counting Kit-8 (CCK-8) reagent and a BioTek microplate reader to count the numbers of live and dead cells.
# NIH/3T3 cells were seeded into 96-well plates (Fisher brand) at a density of 8,000 cells in 150 μL growth medium per well. The cells were incubated for 24 hours at 37° C. with 5% CO2. After 24 hours all medium was aspired one row at a time and treated with various concentrations of each compound (10 mM, 5 mM, 1 mM, 0.5 mM and 0.1 mM) or carboxylic acid/NaOH (10 mM/5 mM, 5 mM/2.5 mM). The control cells were treated with fresh medium only. The cells were then incubated again for 48 hours at 37° C. with 5% CO2. After incubation, all medium was aspired and replaced with fresh medium and 10% (v/v) CCK-8 reagent and returned to incubate at 37° C. with 5% CO2 for 2 hours. Cell viability was then calculated from the OD value read by a plate reader (Biotek Synergy H1) at wavelength of 450 nm.
# [5] = incubated with media only, frozen in media containing 5% DMSO without trehalose
# [6] = incubated with 10% DMSO, reference set as 100%
# [7] = Table 2, incubated with 10% DMSO, reference set as 100%
# [8] = Table 3, incubated with 10% DMSO, reference set as 100%
# [9] = incubated with 10 mM for 48 h, frozen −80° C. 72 h in media with 400 mM trehalose
# [10] = incubated at 5 mM without DMSO, frozen −80° C. 72 hours, freezing media with 400 mM trehalose, 10% DMSO set as 100%
# [11] = incubated at 10 mM without DMSO, frozen −80° C. 72 hours, freezing media with 400 mM trehalose, 10% DMSO set as 100%
# [12] = Table 2, incubated 36 hours at 5 mM without DMSO, frozen −80° C. 72 hours, 400 mM trehalose, 10% DMSO set as 100%
# [13] = Table 2, incubated 36 hours at 10 mM without DMSO, frozen −80° C. 72 hours, 400 mM trehalose, 10% DMSO set as 100%
# [14] = Table 3, incubated 36 hours at 5 mM without DMSO, frozen −80° C. 72 hours, 400 mM trehalose, 10% DMSO set as 100%
# [15] = Table 3, incubated 36 hours at 10 mM without DMSO, frozen −80° C. 72 hours, 400 mM trehalose, 10% DMSO set as 100%
compound,measurement,setting,value
"C[S+](C)[O-] [DMSO, dimethyl sulfoxide, reference compound]",0-hour post thaw recovery (%),3T3 cells,77.9 ± 3.8%
same,Post-thaw recovery (%) 0-hr,NIH-3T3 cells [1]; [5],84.5 ± 3.8%
same,Post-thaw recovery (%) 24-hr,NIH-3T3 cells [1]; [5],93.9 ± 2.4%
same,Post-thaw recovery (%) 48-hr,NIH-3T3 cells [1]; [5],196.4 ± 5.7%
same,"Post-thaw viability, 24 hours post thaw",NIH-3T3 cells [2]; [6],100.0 ± 11.8%
same,"Post-thaw viability, 48 hours post-thaw",NIH-3T3 cells [2]; [6],100.0 ± 4.0%
same,"Post-thaw viability (%), 24 hours post thaw",NIH-3T3 cells [2]; [7],100.0 ± 3.6%
same,"Post-thaw viability (%), 48 hours post-thaw",NIH-3T3 cells [2]; [7],100.0 ± 13.4%
same,"Post-thaw viability (%), 24 hours post thaw",NIH-3T3 cells [2]; [8],100.0 ± 13.5%
same,"Post-thaw viability (%), 48 hours post-thaw",NIH-3T3 cells [2]; [8],100.0 ± 5.3%
CCC(=O)OC[C@@H](O)[C@@H](O)COC(=O)CC [EryPr2],Post-thaw recovery (%) 0-hr,NIH-3T3 cells [1]; [9],48% and 47.9 ± 3.4%
same,Post-thaw recovery (%) 24-hr,NIH-3T3 cells [1]; [9],42.6 ± 2.6%
same,Post-thaw recovery (%) 48-hr,NIH-3T3 cells [1]; [9],72% and 71.6 ± 3.9%
"OC[C@@H](O)[C@@H](O)CO [Erythritol, erythritol, reference compound]",Post-thaw recovery (%) 0-hr,NIH-3T3 cells [1]; [9],33.5 ± 2.7%
same,Post-thaw recovery (%) 24-hr,NIH-3T3 cells [1]; [9],26.0 ± 0.6%
same,Post-thaw recovery (%) 48-hr,NIH-3T3 cells [1]; [9],42.3 ± 1.2%
O=C(OCC(COC(=O)[C@@H]1CCCN1)OC(=O)[C@@H]1CCCN1)[C@@H]1CCCN1 [GLC3P],"Post-thaw viability, 24 hours post thaw",NIH-3T3 cells [2]; [10],130.9 ± 5.3%
same,"Post-thaw viability, 48 hours post-thaw",NIH-3T3 cells [2]; [10],143.8 ± 4.2%
same,"Post-thaw viability, 24 hours post thaw",NIH-3T3 cells [2]; [11],174.7 ± 6.9%
same,"Post-thaw viability, 48 hours post-thaw",NIH-3T3 cells [2]; [11],220.4 ± 5.5%
"OC[C@@H](O)[C@@H](O)[C@H](O)[C@H](O)CO [Mannitol, mannitol, reference compound]",Post-thaw viability/recovery in fluorescence microscopy images,NIH-3T3 cells [3],does not result in higher post-thaw viability than cells treated with media only
same,Post-thaw recovery (%) 0-hr,NIH-3T3 cells [1]; [9],24.1 ± 1.8%
same,Post-thaw recovery (%) 24-hr,NIH-3T3 cells [1]; [9],20.8 ± 1.5%
same,Post-thaw recovery (%) 48-hr,NIH-3T3 cells [1]; [9],41.5 ± 3.0%
O=C(OC[C@H](OC(=O)[C@@H]1CCCN1)[C@@H](OC(=O)[C@@H]1CCCN1)[C@H](OC(=O)[C@@H]1CCCN1)[C@@H](COC(=O)[C@@H]1CCCN1)OC(=O)[C@@H]1CCCN1)[C@@H]1CCCN1 [SBT6P],"Post-thaw viability (%), 24 hours post thaw",NIH-3T3 cells [2]; [12],33.3 ± 1.4%
same,"Post-thaw viability (%), 48 hours post-thaw",NIH-3T3 cells [2]; [12],66.2 ± 2.0%
same,"Post-thaw viability (%), 24 hours post thaw",NIH-3T3 cells [2]; [13],34.0 ± 3.5%
same,"Post-thaw viability (%), 48 hours post-thaw",NIH-3T3 cells [2]; [13],69.6 ± 6.5%
CCCC(=O)OC[C@@H](O)[C@@H](O)[C@H](O)[C@@H](O)COC(=O)CCC [SorbBa2],"Post-thaw viability (%), 24 hours post thaw",NIH-3T3 cells [2]; [14],113.4 ± 9.5%
same,"Post-thaw viability (%), 48 hours post-thaw",NIH-3T3 cells [2]; [14],143.3 ± 7.4%
same,"Post-thaw viability (%), 24 hours post thaw",NIH-3T3 cells [2]; [15],150.4 ± 1.5%
same,"Post-thaw viability (%), 48 hours post-thaw",NIH-3T3 cells [2]; [15],211.8 ± 2.2%
"OC[C@@H](O)[C@@H](O)[C@H](O)[C@@H](O)CO [Sorbitol, sorbitol, reference compound]",Post-thaw viability/recovery in fluorescence microscopy images,NIH-3T3 cells [3],does not result in higher post-thaw viability than cells treated with media only
same,Post-thaw recovery (%) 0-hr,NIH-3T3 cells [1]; [9],32.8 ± 3.2%
same,Post-thaw recovery (%) 24-hr,NIH-3T3 cells [1]; [9],28.4 ± 2.1%
same,Post-thaw recovery (%) 48-hr,NIH-3T3 cells [1]; [9],50.8 ± 3.5%
CCC(=O)OC[C@@H](O)[C@H](O)[C@@H](O)COC(=O)CC [XylPr2],Post-thaw recovery (%) 0-hr,NIH-3T3 cells [1]; [9],52.1 ± 4.8%
same,Post-thaw recovery (%) 24-hr,NIH-3T3 cells [1]; [9],49.7 ± 1.1%
same,Post-thaw recovery (%) 48-hr,NIH-3T3 cells [1]; [9],90.0 ± 4.3%
"OC[C@@H](O)[C@H](O)[C@@H](O)CO [Xylitol, xylitol, reference compound]",Post-thaw recovery (%) 0-hr,NIH-3T3 cells [1]; [9],24.6 ± 2.4%
same,Post-thaw recovery (%) 24-hr,NIH-3T3 cells [1]; [9],22.1 ± 2.1%
same,Post-thaw recovery (%) 48-hr,NIH-3T3 cells [1]; [9],44.3 ± 4.7%
CCCC(=O)O [butyric acid],Cell viability relative to control groups,NIH-3T3 cells [4]; at 5 mM,~50%
same,Cell viability relative to control groups,NIH-3T3 cells [4]; at 10 mM,~40%
CCC(=O)O [propionic acid],Cell viability relative to control groups,NIH-3T3 cells [4]; up to 10 mM,~70%

# Source: patent US20240065261A1, “PENETRATING CRYOPROTECTION AGENTS AND METHODS OF MAKING AND USING SAME” (The Research Foundation for The State University of New York, priority 2020, published 2024)
